The values below come from patent US8548786B2, “Neuronal avalanche assay” (priority 2005, dated 2013).

Counter-ions that a name gives are not always drawn.

Data set [1] relates to organotypic cortex-VTA cultures. Put plainly: γ-oscillations and neuronal avalanches in organotypic cortex-VTA co-cultures. The class given is cell-based, rat. The protocol: Cortical extracellular neuronal activity was recorded in organotypic cortex-VTA cultures using 8×8 multielectrode arrays (FIG. 17A). The activity in the cortical tissue started as isolated single unit activity, which later formed bursts of multi-unit activity in the form of oscillations (FIG. 17B). […] The appearance of oscillatory activity ranged from closely placed isolated LFPs to frank sinusoidal waves lasting from 50 ms to 500 ms. […] LFP amplitudes varied from −10 μV to −1200 μV (mean=−38.2±3.4 μV) and varied between cultures −10.68±0.53 μV to −223.6±19.25 μV (mean high value).
Organotypic co-cultures were prepared from the frontal cortex (EC) and ventral-tegmental area (VTA) isolated from postnatal day 1-2 (PND) old rats. The VTA slices were cut at a thickness of 500 μm and cortex at 350 μm. The culture was done with cortex placed on multielectrode arrays (Multichannel Systems, Reutlingen, Germany) with electrode diameter of 30 μm and interelectrode distance of 200 μm. Cultivation and recording was done in a sterile chamber on the microelectrode array as described above. The culture was kept within the incubator with the rocking movement (˜0.005 Hz) throughout the recording. Spontaneous extracellular signals were recorded at a sampling frequency of 4 kHz with 1 kHz low pass filtering continuously for an average of 4±1 hrs. The temperature inside incubator was maintained at 35±0.5° C.
Neuronal oscillatory activity was analyzed by calculating the power spectrum from periods of prominent LFP activity, i.e. LFP bursts using a discrete Fast Fourier Transform in Matlab (Mathworks). Periods of prominent LFP activity were identified by negative threshold crossing at −3 SD from electrode noise. When calculating the average power spectrum for an activity period on the array, the duration for selecting activity periods was taken as the average duration of individual oscillatory activity in each recording session. While taking activity regions care was taken to avoid recalculation of spectra from the same time period in same electrode. The power spectrum of noise for each electrode was separately calculated from 20 separate recording regions where no activity was present and the power in the noise was subtracted from that in the signal. The selected signal region was filtered with a Hanning window (a cosine window defined by: w(k+1)=0.5*(1−cos(2*pi*(k/(n−1)))), k=0, 1, 2 . . . n−1) before calculating the power spectrum. The power spectrum of each activity period was calculated and averaged from all the active electrodes in each activity period. Then the power spectrum was averaged over the entire 4 hr recording.
To test the hypothesis, that neuronal avalanches might persist in the presence of oscillatory activity, the signals from all channels were analyzed for LFPs occurring with a peak 3×SD above noise (FIG. 19). This yielded a raster with time of occurrence and peak amplitude of LFPs (FIGS. 19B,C). The data was binned at Δtavg obtained from cross correlation analysis. […] Plotting the probability of occurrence of avalanches of different sizes against avalanches in log-log coordinates of different sizes yielded a curve with slope α=−1.5 (FIGS. 19D,E; mean=−1.53±0.02, n=9).
About 3 μl of the stock solution was added to the ˜600 μl of culture media in the multielectrode array chamber to reach a final concentration of 10 μM. […] The concentration of DMSO in the working solution was limited to 0.01%. Each addition of the drug was followed by 4 hours of continuous recording, after which the culture was washed by replacing the culture medium with 50% of conditioned media (collected from the same culture the day before drug application) and 50% of fresh, unconditioned medium, followed by 4-8 hrs of recording.

Data set [2] relates to organotypic cortex cultures. Put plainly: Neuronal avalanche assay in organotypic cortex slice cultures on microelectrode arrays. It is filed as cell-based, rat. On the procedure:
Organotypic cultures from slices of rat cortex were prepared in accordance with NIH guidelines. Coronal sections from rat brains (Sprague Dawley, Taconic Farms, Md., USA) at postnatal day 0-2 were cut at 350 μm thickness. A coronal slice section containing dorsal or dorsolateral cortex (˜1.5 mm deep and ˜2-3 mm wide) was positioned on a multi-electrode array (Multichannelsystems, Reutlingen, Germany). The array covered ˜50-70% of the cortical tissue with the bottom row aligned to infragranular layers and the upper rows extending beyond layer I. This arrangement allowed for the dorsal expansion of the cortical slice on the multielectrode array, which results from the development of superficial layers during the first weeks postnatal in rat cortex. The slices were attached to the pre-cleaned, poly-D-lysine coated multielectrode array-surface by coagulation with 15 μl chicken plasma and 15 μl of bovine thrombin (Sigma St. Louis, Mo., USA), after which cultures were grown at 35.5° C. in normal atmosphere in a culture medium consisting of 50% Basal Medium Eagle, 25% Hanks Balanced Salt Solution and 25% horse serum, 0.5% glucose, and 0.5 mM L-glutamine (all Gibco, Grand Island, N.Y., USA). Photographs taken at 1-3 DIV and after recording sessions confirmed the position of recording electrodes in the cortical tissue and organotypic cortex slice culture.
A custom-built incubator was used in order to allow for long-term pharmacological experiments and repetitive, sterile recording sessions at different developmental stages under identical recording and culturing conditions. The chamber design and preparation of the multielectrode array for recordings has been described in more detail previously. In short, each multielectrode array consisted of a square glass plate (5×5 cm, 1 mm thickness) with a square array of 60 microelectrodes made of titanium nitride (8×8 grid with the corners missing) at its center (Egert et al., 1998). Titanium nitride electrodes were flat and disk-shaped with a diameter of 30 μm, an inter electrode spacing of 200 μm, and were attached to gold leads that ended at the edge of the glass square and served as contacts for the amplifier head stage. A circular glass well (˜10 mm diameter) with a Teflon cap was centered and cured to the glass plate by Sylgard® functioned as a tight-sealed, sterile culture chamber.
Multielectrode arrays were placed onto storage trays inside the incubator and gently rocked. The temperature inside incubator was maintained at 35±0.5° C. For optimal culture survival and culture growth a rocking trajectory was used that approximated a sinusoidal function (˜400 s cycle time) with brief halts of ˜10 s at the steepest angle before reversing directions. At the points of direction reversal, cultures were exposed to the inner chamber atmosphere. […] After 3 and 27 days in vitro (DIV), […] of mitosis inhibitor was added for 24 hr ([…]; calculated to final concentration; all Sigma). Medium was changed every 3-5 days. No antibiotics were used throughout cultivation and recording periods.
For recordings, individual multielectrode arrays were placed into the recording head stage (MultiChannelSystems, Inc.), which was affixed to a second tray within the incubator and had the exact same motion as the primary storage tray. This allowed recording in culture medium under conditions identical to growth conditions. The exchange between recording and storage location for each multielectrode array took few seconds and was done without interruption of the rocking cycle. Activity occurred spontaneously in organotypic cortex cultures and was recorded up to 5 hrs giving rise to >10,000 avalanches per network.
Overall, negative local field potentials (nLFPs) occurred at 82±5% of the electrodes in the acute slices and 88±5% of the electrodes in cultures. Data was sampled at 1 kHz and low pass filtered at 50 Hz. […]

The subject of data set [3] is organotypic cortex-VTA cultures. As to the kind of experiment: γ-oscillations and neuronal avalanches in organotypic cortex-VTA co-cultures. The class given is cell-based, rat. The source holds these as a separate data set.
Data set [4] relates to acute slices of rat medial prefrontal cortex (mPFC). Put plainly: Neuronal avalanche (NAS) assay, microelectrode array LFP recording in acute mPFC slices.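 Also: 60-electrode array recordings, low-pass filtered at 200 Hz and sampled at 1 kHz, nLFPs detected below −3 SD of electrode noise, avalanches as runs of active bins between silent bins.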
Experimental: Continuous extracellular signals v(t) can be recorded between 0.1 Hz and 3000 Hz, low-pass filtered at 200 Hz (Butterfly-filter, Multichannel Systems), digitised at a rate of 1 kHz (Δt=1 ms) and stored. For each electrode k (k=[1, nelec], nelec=60), the electrode noise of v(t) can be estimated by calculating the mean and standard deviation (SD) of v(t) from the total duration of the recording, Ttot, which can range, for example, between 40-60 min. […] Negative LFP peaks (nLFPs) at electrode k can be detected by negative threshold crossing at −3 SD of electrode noise and can be characterized by the time and absolute amplitude of the negative LFP peak, A^k(ti), before v(t) returned to threshold. More precisely, at a given temporal resolution Δt, nLFPs at electrode k can be represented by a vector of length nmax, where nmax is an integer value for which Ttot=nmax·Δt. This vector can contain zeros, except for positions ti=i·Δt, iε[1, . . . , nmax,] with values A^k(ti) in μV.
A neuronal avalanche is a sequence of consecutive time bins of width Δt with at least one nLFP, which is preceded and terminated by at least one time bin with no activity (FIG. 3A). The absence of activity for a period of Δt thus indicates the end of an avalanche. If the decision of whether an avalanche has ended is made too early (Δt too short), avalanches will be terminated prematurely; if the Δt chosen is too long, avalanches will be falsely concatenated. If avalanches did simply propagate like a wave, an approximation for Δt (Δtavg) could be obtained by averaging the time between one nLFP at one electrode and the next nLFP at neighbouring electrodes only. Because nLFPs in avalanches occur in irregular patterns across electrodes on the array, a pair wise approximation can be used in order to assess the average time that is required for nLFPs to propagate between electrodes.
In order to calculate Δtavg, the distribution of time intervals T for successive nLFPs on the array can be obtained. Starting with the first nLFP, e.g. A^k(ti) on electrode k at time ti, the next occurrence of an nLFP on the array can be searched for, e.g. A^l(tj) on electrode l at time tj, and calculated the time interval Tm-Δt^k,l, where m=(tj−ti)/Δt. This process can be repeated for all occurrences of nLFPs on electrode k and for all electrodes. The resulting values can be combined into one density distribution P(TmΔt), which captures how often successive nLFPs occurred with a particular delay m·Δt on the array irrespective of their spatial location. Consequently, the average value of T provides an approximation for Δtavg, the average time to wait before making a decision whether an nLFP propagated on the array. However, this interval distribution is highly skewed, particularly when one compares the last nLFP with the first nLFP in successive avalanches that are separated by long times. In order to exclude time intervals from successive nLFPs that are barely correlated, a cut-off time τmax can be calculated for which the average crosscorrelation function (ccf) for pair wise electrode comparisons Rccf(τ) had decayed to negligible values. The ccf between electrodes k, l (Rccf^k,l(τ)) can be calculated as
Because the exemplary maximal sampling rate was 1 kHz, the actual Δt^avg to calculate avalanches can be taken as the nearest multiple of Δt=1 ms. In short, after Δtavg was calculated for a particular network and experimental condition, the extracellular signals v(t) can be re-sampled at the new temporal resolution of Δtavg. Time and amplitude of nLFP peaks can be extracted as A^k(ti), where ti=i·Δtavg, iε[1, n′max] and Ttot=n′max·Δtavg. Avalanches can be determined on the downsampled data set at bin width Δtavg.
Avalanche sizes can be calculated in two different ways (see also FIG. 3A).
Setting [5] is: similar for each dopamine concentration, + 3 μM NMDA, n=26 slices.

As to `CCN1CCCC1CNC(=O)c1cc(S(N)(=O)=O)ccc1OC` (stereo not drawn) [sulpiride], the “change in γ frequency” value in data set [1] (sulpiride 10 μM) was “without a change in frequency”. In data set [1] (sulpiride 10 μM, n=5), the “change of power of γ-activity” value is recorded as “doubled” and the “slope α of avalanche size distribution” value was −1.37±0.02.

As to `O=[N+]([O-])c1cc2nc(O)c(O)nc2cc1[N+](=O)[O-]` [DNQX], the “slope α of avalanche size distribution” value in data set [2] (DNQX 3 μM bath-applied, 6 cortical cultures, control −1.5) is listed as around −2.

Regarding picrotoxin, in data set [1] (picrotoxin, n=3 cultures), the “average burst duration in the network” value is given as “increases the average burst duration”. In addition, the “power in the δ/θ-frequency range” value in data set [1] (picrotoxin, single culture) is reported as “increases the power in the δ/θ-frequency range”. Also, the “initial slope α of avalanche size distribution” value in data set [2] (picrotoxin 3 μM (FIG. 24C legend)) was around −2. Besides, in data set [2] (picrotoxin 3 μM vs DNQX 3 μM), the “over-representation of large avalanches, epileptic vs sub-critical state” value was around 10 times. The “decrease in average rate of spontaneous nLFPs” value in data set [2] (picrotoxin 5 μM, N=4 cultures) was 80±23%. The “increase of deviations in nLFP waveforms relative to initial nLFP” value in data set [2] (picrotoxin 5 μM, first time step) was around 3.5 fold. Further, the “probability of nLFP being larger than nLFP in the preceding time step” value in data set [2] (picrotoxin 5 μM, normal conditions 0.5) is reported as around 0.58. In addition, the “increase of deviations in nLFP waveforms relative to initial nLFP” value in data set [2] (picrotoxin 5 μM, within 8 time steps) was around 6 fold. In data set [2] (picrotoxin 2-3 μM), the “initial slope α of avalanche size distribution” value is on record as −1.8 and the “shape of avalanche size distribution” value was “bimodal distribution”. In data set [3] (picrotoxin 5 μM), the “shape of avalanche size distribution” value is “almost bimodal”. Moreover, in data set [3] (picrotoxin 5 μM bath-applied), the “reduction of γ-oscillations” value was “more than 50%”. The “nLFP and avalanche activity after adding GABAA antagonist” value in data set [4] (10 μM picrotoxin added to activity sustained by 30 μM dopamine + 3 μM NMDA) is reported as “ceased”. For the same compound, in data set [4] (picrotoxin alone 10 μM), the “maximal time difference between correlated electrodes τmax” value turned out to be 30.5±7.2 and the Δtavg worked out at 2.3±0.2. In data set [4] (picrotoxin alone 10 μM, n=6), the avalanche rate is on record as 0.18±0.02 Hz, the “duration of spontaneous activity” value is 28 ± 2 min, the nLFP rate was 0.01±0.001 Hz and the “total activity Atot” value was found to be 5033±719 μV. Further, the “initial slope αLFP of disinhibited activity” value in data set [4] (picrotoxin alone 10 μM, sLFP=15-85) is −1.9±0.08. Further, the “initial slope αele of disinhibited activity” value in data set [4] (picrotoxin alone 10 μM, sele=1-5) was −1.97±0.02. Also, the “spontaneous avalanche induction with co-applied GABAA antagonist” value in data set [4] (picrotoxin co-applied with 3 μM NMDA and 3 μM SKF38393, n=6) was “prevented spontaneous avalanches induction altogether”.

For the compound `CN[C@H](CC(=O)O)C(=O)O` [NMDA, N-Methyl-D-Aspartate], the “nLFP and avalanche activity induced by NMDA alone” value in data set [4] (3 μM NMDA alone in the presence of 10 μM SCH23390, n=7) was “negligible nLFP and avalanche activity”.

Regarding `NCCc1ccc(O)c(O)c1` [dopamine], in data set [4] (30 μM dopamine + 3 μM NMDA), the “maximal area sele within the power law regime” value is reported as around 18 electrodes and the “optimal bin width Δtavg” value was found to be 2.7 ± 0.2 ms. The “slope αLFP of avalanche size distribution (summed nLFP amplitudes)” value in data set [4] (30 μM dopamine + 3 μM NMDA bath-applied, sLFP=6-300 μV) was −1.50±0.03. Further, the “τmax for which Rccf dropped below 10^−4” value in data set [4] (30 μM dopamine + 3 μM NMDA, all n=6 slices) came out at 60 ms. Further, the “cortical layer localisation of induced avalanche activity” value in data set [4] (30 μM dopamine + 3 μM NMDA, cortical depth 200-900 μm) was “strongest in superficial layers II/III”. Besides, in data set [4] (30 μM dopamine + 3 μM NMDA, inter-electrode distance 200 μm), the “propagation velocity for nLFPs on the array” value is given as around 74 mm/s. Moreover, the “slope αele of avalanche size distribution (number of active electrodes)” value in data set [4] (30 μM dopamine + 3 μM NMDA, sele=1-18 electrodes) is reported as −1.47±0.03. For the same compound, the “increase in likelihood of family recurrence beyond chance level” value in data set [4] (30 μM dopamine in the presence of 3 μM NMDA) is given as around 500%. Further, the “Δtavg, average for all dopamine concentrations” value in data set [4] (all dopamine concentrations tested + 3 μM NMDA, n=26 experiments) came out at 2.7 ± 0.1 ms. The “mean nLFP peak, rate of nLFPs per electrode and total activity Atot, dependence on dopamine concentration” value in data set [4] (dopamine + 3 μM NMDA, inverted-U profile) is on record as “maximal at moderate concentration of dopamine (30 μM)”. In addition, the “slope α of cluster size distribution” value in data set [4] (dopamine concentrations lower or higher than 30 μM, + 3 μM NMDA) is around −2. Moreover, in data set [4] (setting [5]), the “duration of spontaneous activity” value worked out at 43 ± 3 min and the “number of active electrodes” value is 33±4 electrodes.

`CN1[C@@H]2CC[C@H]1C[C@@H](OC(=O)C(CO)c1ccccc1)C2` (stereo partly drawn) [atropine]: the “neuronal avalanche induction with muscarinergic receptors blocked” value in data set [4] (atropine 10 μM + 3 μM NMDA + 3 μM SKF38393) is on record as “did not block neuronal avalanche induction”. Further, in data set [4] (atropine 10 μM + 3 μM NMDA + 3 μM SKF38393, n=6), the “power law slope αLFP with muscarinergic receptors blocked” value is given as −1.696±0.045.

`CN1CCN(C2=Nc3cc(Cl)ccc3Nc3ccccc32)CC1` [Clozapine, clozapine]: in data set [4] (clozapine 100 nM), the “network state of induced avalanche dynamics” value is “epileptic”, the “slope αele of avalanche size distribution” value was −2.07±0.08 and the “ΔPmax (likelihood of large avalanches beyond linear regression)” value amounted to 0.006. Further, in data set [4] (clozapine 100 nM bath-applied), the “total duration of induced LFP activity” value is given as around 40 min. Also, the “initial slope αLFP of avalanche size distribution” value in data set [4] (clozapine 100 nM, Δtavg=1 ms, range 5-60 μV) is −2.00±0.13.

Regarding `CN1CCc2cc(Cl)c(O)cc2[C@@H](c2ccccc2)C1` (racemic) [SCH23390, R(±)-7-chloro-8-hydroxy-3-methyl-1-phenyl-2,3,4,5-tetrahydro-1H-3-benzazepine hydrochloride], in data set [1] (SCH23390 10 μM), the “shift of peak frequency in the high frequency band from its original value” is listed as 59±1%. In data set [1] (SCH23390 10 μM, n=5), the “reduction of power of dominant frequencies between 40-120 Hz” value is “more than 50%” and the “slope α of avalanche size distribution” value is given as −1.60±0.04. Also, the “slope αLFP for washout of antagonist” value in data set [4] (after washout of 10 μM SCH23390, 30 μM dopamine + 3 μM NMDA) is −1.55±0.06.
